According to PMC3650558, “A Yeast Chemical Genetic Screen Identifies Inhibitors of Human Telomerase” (Chemistry & Biology, 2013):
Entries after “also recorded” stand apart in the source; their conditions may differ.

Assays:
[1] = target: purified human telomerase; design: method as in Damm et al., 2001; Pascolo et al., 2002; conditions: human telomerase in vitro; ref Damm et al., 2001; Pascolo et al., 2002; cited from earlier work
[2] = system: W303-1a cells expressing Cdc13-hTERT-FLAG + hTR (active human telomerase); assay: Yeast growth rescue screen (time to reach OD595 of 0.62 relative to DMSO); type: cell-based, S. cerevisiae; conditions: for Z Score: z = (x − μ)/σ of normalized time difference over all compounds in the bioactive library
Protocol: These 678 compounds were selected from a 50,000 member Maybridge library based upon a spectrum of growth inhibitory bioactivity in a drug pump-deficient yeast strain ([Ishizaki et al., 2010]). […] In each 96-well assay plate, growth of the query strain in the presence of compound (20 μM), beginning at the onset of the experimental growth phase (i.e., time course 2, from 43 hr onward), was normalized against DMSO treatment (Figures 2C and 2D; Figures S2D and S2E).
To conduct the HTS (Figure 2A), 98 μl (3 × 10^5 cells per milliliter) was dispensed into 96-well clear flat-bottomed microplates (Corning Costar) using a Biomek FX (Beckman Coulter). A small molecule bioactive library of 678 compounds was utilized for the screen, consisting of compounds selected from the Maybridge collection (Thermo Fisher Scientific). […] DMSO at 2% (v/v) and 20 μM cycloheximide (Sigma) final concentration were added as controls to each assay plate, into alternate wells in columns 1 and 12 using the Span 8 module of the Biomek FX. Nine plates were analyzed, 80 compounds per plate, with 16 wells for controls. After compound addition, the plates were sealed and followed for time course 1 (up to 39 hr) on a Sunrise plate reader (Tecan) at absorbance 595 nm, maintained at 30°C and shaking at 564 rpm. After time course 1, cells in assay plates were diluted to 3 × 10^5 cells per milliliter in fresh media containing galactose using the Biomek FX. The plates were preincubated in galactose-containing media at 30°C for 3 hr (to allow a period of recovery from the stationary phase in the absence of compound), 2 μl of each compound or control was added to plates as described earlier, returned to the plate readers, and followed for time course 2 (up to 86 hr), for a total of ∼128 elapsed hours.
Growth curves were analyzed using a growth curve analysis tool implemented in R. After smoothing of growth curves, the time required for cells induced with human telomerase to reach an OD595 of 0.62 in the presence of each compound during time course 2 was derived using a data-based approach ([Warringer and Blomberg, 2003]). The time to reach an OD595 of 0.62 for each compound was normalized to the average DMSO value from each assay plate (to arrive at a normalized value, x, for each compound) and used to generate heatmaps as shown in Figure 2C. Z scores were calculated based on the equation: z = (x − μ)/σ, where μ is the mean time difference for all compounds in the bioactive library and σ is the SD for all compounds in the bioactive library.

W303-1a control strains = assay: Growth of control yeast strains; type: cell-based, S. cerevisiae; conditions: W303-1a cells alone; 500, 150, 50, 10 or 1 μM
pdr1DBD-cyc8 strain = assay: Growth of hyperpermeable yeast strain; conditions: 0.03-1 μM, irrespective of human telomerase expression status
[3] = target: T1, purified recombinant human telomerase (Homo sapiens, UniProt O14746); assay: Telomerase repeat amplification protocol (TRAP) assay, purified enzyme; type: biochemical; conditions: 200, 100, 20, 10 or 2 μM; 15 min preincubation
T1 construct: made in house
Protocol: Figure 3 Assessment of Human Telomerase Inhibition In Vitro (A) Chemical structures of BIBR1532 and hit compounds SEW05920, SPB03924, and CD11359. (B) Representative gel of the telomerase repeat addition protocol (TRAPeze, Millipore) after addition of RJC00417, SEW05920, SPB03922, and RH00646 to recombinant human telomerase purified in vitro ([Beattie et al., 1998]; [Oulton and Harrington, 2004]) (n = 3). Lanes 1–5, treatment with 200, 100, 20, 10, or 2 μM RJC00417; lanes 6–10, treatment with 200, 100, 20, 10, or 2 μM SEW05920; lanes 11–15, treatment with 200, 100, 20, 10, or 2 μM SPB03922; lanes 16–20, treatment with 200, 100, 20, 10, or 2 μM RH00646; lane 21, treatment with 2% v/v DMSO; lane 22, pretreatment with ribonuclease A. IC; internal PCR control (36 base pairs [bp]). (C) Representative gel of the relative telomerase activity (RTA) by ELISA-TRAP (TeloTAGGG Telomerase PCR ELISA-PLUS, Roche Diagnostics) of purified human telomerase upon incubation with BIBR1532 (lanes 1–4), SEW05920 (lanes 5–8), SPB03924 (lanes 11–14), CD11359 (lanes 15–18) (concentration indicated in micromolar), 2% v/v DMSO (lane 9), or heat (lane 10). IC; internal PCR control (216 bp). (D) Levels of RTA (%) after normalization to a 216 bp internal control, as shown in (C). Error bars indicate SD, n = 3. For synthesis of BIBR1532, see Figure S2.
As a control, we observed no inhibition of the Taq polymerase used for amplification of telomerase extension products in the TRAP (data not shown). […]
From the high-throughput analysis, 51 compounds with a neutral effect or that rescued the growth of strains expressing active human telomerase (relative to DMSO) were picked from the master HTS plates and re-analyzed (Figure 2C, and data not shown). […]
(§1) Telomerase activity was assessed using the Telomere Repeat Amplification Protocol (TRAPeze, Millipore) or ELISA-TRAP (TeloTAGGG Telomerase PCR ELISA-PLUS, Roche Diagnostics) following manufacturers’ instructions. […]

[4] = target: T2, telomerase activity in crude HeLa cell extracts (Homo sapiens, UniProt O14746); assay: TRAP assay in crude HeLa cell extracts; type: biochemical
T2 construct: telomerase activity in crude HeLa cell extracts; endogenous in cells; host or cells: HeLa
Protocol: As a control, we observed no inhibition of the Taq polymerase used for amplification of telomerase extension products in the TRAP (data not shown). In addition, as negative controls, two other compounds that were not identified as hits (SPB03922 and RH00646) were tested and confirmed to exert no effect upon telomerase activity in vitro (Figure 3B). Using a semiquantitative assay for the detection of telomerase elongation products (ELISA-TRAP) the in vitro half maximal inhibitory concentration (IC50) values of the compounds fell between 1 and 6.5 μM (Figures 3C and 3D). Similar IC50 values were also observed against purified recombinant murine telomerase (data not shown). These values are higher than that of BIBR1532 (IC50 = 0.1 μM) ([Damm et al., 2001]; [Pascolo et al., 2002]) but within a concentration range typical of first hits from commercial libraries. SEW05920, SPB03924, and CD11359 are heteroaromatic small molecules that differ structurally from BIBR1532 (Figures 3A and S2F).
Supplemental Experimental Procedures
Follow-up analysis of compounds identified in HTS
From the high-throughput analysis, 51 compounds with a neutral effect or that rescued the growth of strains expressing active human telomerase (relative to DMSO) were picked from the master HTS plates and re-analyzed (Figure 2C, and data not shown). These compounds were tested on a control strain, W303-1a expressing hTR and Cdc13-hTERT lacking the Cdc13 DBD, and 7 compounds were excluded from further analysis because they elicited a non-specific growth delay of the control strain. The remaining 44 compounds were subjected to secondary screens against the query strain expressing active human telomerase (n=2). Based on these results, twenty-eight compounds were purchased for further verification against the control and […]
as §1

T1 sequence (O14746 whole entry): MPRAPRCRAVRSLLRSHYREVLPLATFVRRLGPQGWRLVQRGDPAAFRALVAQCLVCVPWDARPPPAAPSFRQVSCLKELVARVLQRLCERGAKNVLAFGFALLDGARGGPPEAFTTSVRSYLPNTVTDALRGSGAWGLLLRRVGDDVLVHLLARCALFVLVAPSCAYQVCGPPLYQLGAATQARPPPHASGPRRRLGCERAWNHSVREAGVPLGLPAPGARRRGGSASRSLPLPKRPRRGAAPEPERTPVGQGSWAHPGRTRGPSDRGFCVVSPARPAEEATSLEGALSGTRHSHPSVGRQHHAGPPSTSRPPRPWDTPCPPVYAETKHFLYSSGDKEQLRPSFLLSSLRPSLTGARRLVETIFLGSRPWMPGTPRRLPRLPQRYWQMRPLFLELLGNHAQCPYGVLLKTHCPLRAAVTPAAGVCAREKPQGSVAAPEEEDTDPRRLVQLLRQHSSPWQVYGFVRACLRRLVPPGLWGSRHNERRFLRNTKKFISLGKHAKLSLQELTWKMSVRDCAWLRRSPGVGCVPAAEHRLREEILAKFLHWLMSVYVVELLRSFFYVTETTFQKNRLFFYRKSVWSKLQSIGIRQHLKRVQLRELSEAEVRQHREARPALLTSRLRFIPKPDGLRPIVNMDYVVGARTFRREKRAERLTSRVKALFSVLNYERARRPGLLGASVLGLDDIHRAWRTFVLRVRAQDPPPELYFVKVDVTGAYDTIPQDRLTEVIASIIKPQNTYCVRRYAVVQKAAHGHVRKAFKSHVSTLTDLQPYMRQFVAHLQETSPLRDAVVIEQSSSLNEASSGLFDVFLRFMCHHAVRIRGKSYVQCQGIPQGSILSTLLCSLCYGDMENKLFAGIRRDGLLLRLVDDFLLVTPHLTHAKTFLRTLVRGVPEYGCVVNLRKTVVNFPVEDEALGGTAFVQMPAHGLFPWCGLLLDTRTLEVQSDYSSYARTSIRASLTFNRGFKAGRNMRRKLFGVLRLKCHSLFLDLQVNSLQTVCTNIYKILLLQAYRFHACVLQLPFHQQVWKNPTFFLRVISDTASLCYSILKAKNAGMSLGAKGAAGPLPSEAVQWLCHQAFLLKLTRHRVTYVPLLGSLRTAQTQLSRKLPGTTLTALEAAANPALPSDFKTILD
T2 sequence (O14746 whole entry): as above
T2 sequence (O60832 whole entry partner): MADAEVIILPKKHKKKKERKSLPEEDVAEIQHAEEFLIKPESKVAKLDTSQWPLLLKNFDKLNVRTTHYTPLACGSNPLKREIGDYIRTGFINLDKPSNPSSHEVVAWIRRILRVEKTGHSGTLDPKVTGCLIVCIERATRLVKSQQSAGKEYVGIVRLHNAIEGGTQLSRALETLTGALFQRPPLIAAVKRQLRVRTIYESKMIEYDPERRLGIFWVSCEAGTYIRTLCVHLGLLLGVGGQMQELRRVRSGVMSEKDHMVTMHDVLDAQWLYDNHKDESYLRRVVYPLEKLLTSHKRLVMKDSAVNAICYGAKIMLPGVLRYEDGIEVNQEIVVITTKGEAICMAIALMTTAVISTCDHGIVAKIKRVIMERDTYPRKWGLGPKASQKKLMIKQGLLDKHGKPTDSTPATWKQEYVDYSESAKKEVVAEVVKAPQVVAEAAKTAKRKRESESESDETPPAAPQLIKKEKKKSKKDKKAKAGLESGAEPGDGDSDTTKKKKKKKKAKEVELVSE
T2 sequence (Q9NPE3 whole entry partner): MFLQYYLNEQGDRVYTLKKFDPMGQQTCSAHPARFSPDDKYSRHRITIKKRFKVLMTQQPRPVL
T2 sequence (Q9NX24 whole entry partner): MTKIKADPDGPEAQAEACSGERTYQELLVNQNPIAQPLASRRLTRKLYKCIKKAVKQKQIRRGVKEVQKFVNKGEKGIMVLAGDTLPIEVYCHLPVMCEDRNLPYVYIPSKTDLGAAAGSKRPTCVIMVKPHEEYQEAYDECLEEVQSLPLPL
T2 sequence (Q9NY12 whole entry partner): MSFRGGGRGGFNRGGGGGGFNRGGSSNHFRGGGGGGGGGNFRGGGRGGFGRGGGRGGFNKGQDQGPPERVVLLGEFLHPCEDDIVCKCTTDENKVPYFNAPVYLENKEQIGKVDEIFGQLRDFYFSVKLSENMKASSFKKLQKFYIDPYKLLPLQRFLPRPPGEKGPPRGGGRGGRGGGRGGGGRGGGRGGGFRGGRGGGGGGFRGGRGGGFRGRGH
T2 sequence (Q9BUR4 whole entry partner): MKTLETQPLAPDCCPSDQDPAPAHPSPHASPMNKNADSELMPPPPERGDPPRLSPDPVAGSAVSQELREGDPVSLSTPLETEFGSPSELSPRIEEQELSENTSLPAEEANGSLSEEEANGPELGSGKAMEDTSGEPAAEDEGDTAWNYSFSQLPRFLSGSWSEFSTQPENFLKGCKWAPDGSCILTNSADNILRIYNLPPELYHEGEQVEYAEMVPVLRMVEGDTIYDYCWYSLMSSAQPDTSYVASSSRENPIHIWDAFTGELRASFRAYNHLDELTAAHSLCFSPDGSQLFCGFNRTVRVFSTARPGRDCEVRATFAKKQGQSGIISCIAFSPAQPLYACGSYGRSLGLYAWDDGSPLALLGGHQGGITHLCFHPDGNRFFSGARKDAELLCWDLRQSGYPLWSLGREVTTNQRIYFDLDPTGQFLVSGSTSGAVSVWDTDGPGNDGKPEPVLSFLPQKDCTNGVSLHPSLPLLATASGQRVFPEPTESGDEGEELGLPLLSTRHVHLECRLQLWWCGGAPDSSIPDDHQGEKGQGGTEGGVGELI

| SMILES | IC50 [1] | effect upon growth of yeast expressing human telomerase ([2]; 500, 150, 50, 10 or 1 μM) | effect upon growth of control strains (W303-1a control strains) | toxicity in hyperpermeable strain pdr1DBD-cyc8 (pdr1DBD-cyc8 strain) | inhibition of purified recombinant human telomerase (TRAP) [3] | Z Score [2] | inhibition of telomerase activity in crude HeLa cell extracts (TRAP) [4] | growth recovery in follow-up screens ([2]; follow-up subscreens, re-plated from master HTS plate and repurchased compound) | growth recovery in the initial HTS ([2]; initial HTS, 20 μM) | Time (hr) Difference at an OD595 of 0.62 Relative to DMSO ([2]; compound 20 μM, time course 2, growth rescue of strain expressing active human telomerase) |
| --- | --- | --- | --- | --- | --- | --- | --- | --- | --- | --- |
| C/C(=C\C(=O)Nc1ccccc1C(=O)O)c1ccc2ccccc2c1 [BIBR1532, 2-[(E)-3-naphthalen-2-yl-but-2-enoylamino]-benzoic acid] | 100 nM | had no effect | had no effect | toxic; also recorded: cytotoxic across most concentrations | – | – | – | – | – | – |
| N=C(N)Nc1nc(-c2cc(Cl)sc2Cl)cs1 [CD11359] | – | – | – | – | dose-dependent inhibition | 1.7 | dose-dependent inhibition | – | – | – |
| Cc1ccc(S(=O)(=O)NC(=O)Nc2ccc(Sc3ccccc3)nc2Sc2ccccc2)cc1 [SEW05920] | – | – | – | – | inhibited telomerase activity in vitro; also recorded: dose-dependent inhibition | 1.7 | dose-dependent inhibition | ~8 h | did not exhibit significant growth recovery | – |
| Cc1cc(C(=O)O/N=C(\N)CSc2ncccc2C(F)(F)F)no1 [SPB03924] | – | – | – | – | dose-dependent inhibition | 2.3 | dose-dependent inhibition | – | – | 12 h |
